From patent US11647750B2, “Active compound combinations having insecticidal/acaricidal properties” (Bayer Aktiengesellschaft, priority 2017, dated 2023)
Read-outs that look alike come from different tables or passages of the source.

Legend:
Assay type in all cases: in vivo
Myzus persicae = Myzus persicae spray test (Chinese cabbage leaf disks); details: mortality
Procedure: (§1) • The expected efficacy of a given combination of two compounds is calculated as follows (see Colby, S. R., “Calculating Synergistic and antagonistic Responses of Herbicide Combinations”, Weeds 15, pp. 20-22, 1967): • If • X is the efficacy expressed in % mortality of the untreated control for test compound A at a concentration of m ppm respectively m g/ha, • Y is the efficacy expressed in % mortality of the untreated control for test compound B at a concentration of n ppm respectively n g/ha, • E is the efficacy expressed in % mortality of the untreated control using the mixture of A and B at m and n ppm respectively m and n g/ha, • then is
(§2) [formula] • If the observed insecticidal efficacy of the combination is higher than the one calculated as “E”, then the combination of the two compounds is more than additive, i.e. there is a synergistic effect.
Myzus persicae Spray Test
(§3) • Solvent: 78.0 parts by weight acetone 1.5 parts by weight dimethylformamide • Emulsifier: alkylarylpolyglycol ether
(§4) To produce a suitable preparation of active compound, 1 part by weight of active compound is mixed with the stated amount of solvents and is diluted with water, containing an emulsifier concentration of 1000 ppm, to the desired concentration. To produce a suitable preparation of a spore suspension the spores are diluted with emulsifier containing water to the desired concentration. Further test concentrations are prepared by dilution with emulsifier containing water.
Chinese cabbage (Brassica pekinensis) leaf disks infected with all instars of the green peach aphid (Myzus persicae), are sprayed with a preparation of the active ingredient of the desired concentration.
After the specified period of time, mortality in % is determined. 100% means all aphids have been killed; 0% means none of the aphids have been killed. The mortality values determined thus are recalculated using the Colby-formula (see above).

Tetranychus urticae [1] = test: Tetranychus urticae spray test, OP-resistant (French bean leaf disks)
Procedure: as §1, §2
Tetranychus urticae—Spray Test OP-Resistant
as §3, §4
French bean (Phaseolus vulgaris) leaf disks infected with all instars of the two spotted spidermite (Tetranychus urticae), are sprayed with a preparation of the active ingredient of the desired concentration.
After the specified period of time, mortality in % is determined. 100% means all spider mites have been killed and 0% means none of the spider mites have been killed. The mortality values determined thus are recalculated using the Colby-formula (see above).

Tetranychus urticae [2] = test: Tetranychus urticae spray test; OP-resistant (bean plants); details: mortality
Procedure: as §1, §2
Tetranychus urticae Spray Test; OP-Resistant
Solvent: 7 parts by weight of dimethylformamide
Emulsifier: alkylaryl polyglycol ether
To produce a suitable preparation of active compound, 1 part by weight of active compound is mixed with the stated amount of solvent and is diluted with water, containing an emulsifier concentration of 1000 ppm, to the desired concentration. Further test concentrations are prepared by dilution with emulsifier containing water.
Bean plants (Phaseolus vulgaris) which are heavily infested with all stages of the two-spotted spider mite (Tetranychus urticae) are treated by being sprayed with the preparation of the active compound of the desired concentration.
After the specified period of time mortality in % is determined. 100% means all the spider mites have been killed and 0% means none of the spider mites have been killed. The mortality values determined thus are recalculated using the Colby-formula (see above).

Meloidogyne incognita = Meloidogyne incognita test (gall formation on salad roots); details: nematicidal activity on the basis of gall formation
Procedure: as §1, §2
Meloidogyne incognita—Test
Solvent: 125.0 parts by weight of acetone
To produce a suitable preparation of active compound, 1 part by weight of active compound is mixed with the stated amount of solvent, and the concentrate is diluted with water to the desired concentration. To produce a suitable preparation of a spore suspension the spores are diluted with water to the desired concentration.
Vessels are filled with sand, a solution of the active ingredient, a suspension containing eggs and larvae of the southern root-knot nematode (Meloidogyne incognita) and salad seeds. The salad seeds germinate and the seedlings grow. Galls develop in the roots.
After the specified period of time nematicidal activity is determined on the basis of the percentage of gall formation. 100% means no galls were found and 0% means the number of galls found on the roots of the treated plants was equal to that in untreated control plants.

[3] = Tetranychus urticae, foliar, 144 h, read-out: Efficacy in % after 6 days
[4] = Tetranychus urticae, foliar, 144 h, 0.5 g ai/ha, mortality, 6 days, read-out: Efficacy in % after 6 days
[5] = Tetranychus urticae, foliar, 144 h, 0.6 g ai/ha, mortality, 6 days, read-out: Efficacy in % after 6 days

Cc1nn(C)c(/C(OC(=O)C(C)(C)C)=C(\C#N)c2ccc(C(C)(C)C)cc2)c1C [Cyenopyrafen, (E)-2-(4-tert-butylphenyl)-2-cyano-1-(1,3,4-trimethylpyrazol-5-yl)vinyl 2,2-dimethylpropionate]
Efficacy in % after 6 days (Myzus persicae; 0.5 g ai/ha): 0% | Efficacy in % after 6 days (Myzus persicae; 2 g ai/ha): 0% | pest or weed control at 0.125 g/ha (Tetranychus urticae [1]; [3]): 0%

CCOC(=O)OC1=C(c2cc(C)ccc2C)C(=O)N[C@]12CC[C@@H](OC)CC2 [Spirotetramat, cis-4-(ethoxycarbonyloxy)-8-methoxy-3-(2,5-xylyl)-1-azaspiro[4.5]dec-3-en-2-one]
Efficacy in % after 7 days (Tetranychus urticae [2]; 2 ppm): 40% | Efficacy in % after 2 days (Tetranychus urticae [1]; 0.05 g ai/ha, mortality): 0% | pest or weed control at 0.05 g/ha (Tetranychus urticae [1]; [3]): 0% | Efficacy in % after 14 days (Meloidogyne incognita; 30 ppm): 0% | Efficacy in % after 14 days (Meloidogyne incognita; 60 ppm): 0%

Cc1ccc(-c2ccc(F)cc2)c(C)c1C1=C(O)C2(CCOCC2)NC1=O [Cpd of formula (IIb)]
Efficacy in % after 2 days (Tetranychus urticae [1]; 0.5 g ai/ha, mortality): 0% | pest or weed control at 0.5 g/ha (Tetranychus urticae [1]; [4]): 0%

spinosad
Efficacy in % after 2 days (Tetranychus urticae [1]; 0.03125 g ai/ha, mortality): 0% | Efficacy in % after 6 days (Tetranychus urticae [1]; 0.03125 g ai/ha, mortality, 6 days): 0% | Efficacy in % after 6 days (Tetranychus urticae [1]; 0.125 g ai/ha, mortality, 6 days): 0%

COC(c1ccc(N(C(=O)c2c(C)nn(C)c2C)C(=O)C(C)C)cc1CC(C)C)(C(F)(F)F)C(F)(F)F [Pyflubumide, 3′-isobutyl-N-isobutyryl-1,3,5-trimethyl-4′-[2,2,2-trifluoro-1-methoxy-1-(trifluoromethyl)ethyl]pyrazole-4-carboxanilide]
Efficacy in % after 2 days (Tetranychus urticae [1]; 0.0125 g ai/ha, mortality): 0% | pest or weed control at 0.0125 g/ha (Tetranychus urticae [1]; Tetranychus urticae, foliar, 144 h, 0.0125 g ai/ha, mortality, 6 days, read-out: Efficacy in % after 6 days): 0% | pest or weed control at 0.6 g/ha (Tetranychus urticae [1]; [5]): 70%

Cc1cc(Cl)cc(C)c1C1=C(O)C2(CCC3(CC2)OCCO3)NC1=O [Cpd of formula (IIa)]
Efficacy in % after 6 days (Myzus persicae; 16 g ai/ha): 0% | Efficacy in % after 2 days (Tetranychus urticae [1]; 1 g ai/ha, mortality): 0% | pest or weed control at 1 g/ha (Tetranychus urticae [1]; Tetranychus urticae, foliar, 144 h, 1 g ai/ha, mortality, 6 days, read-out: Efficacy in % after 6 days): 0%

abamectin
Efficacy in % after 3 days (Tetranychus urticae [2]; 0.01 ppm): 0% | Efficacy in % after 2 days (Tetranychus urticae [1]; 0.00125 g ai/ha, mortality): 0% | Efficacy in % after 6 days (Tetranychus urticae [1]; 0.015 g ai/ha, mortality, 6 days): 70% | Efficacy in % after 6 days (Tetranychus urticae [1]; 0.03 g ai/ha, mortality, 6 days): 70%

milbemectin
Efficacy in % after 6 days (Tetranychus urticae [1]; 0.75 g ai/ha, mortality, 6 days): 0% | Efficacy in % after 6 days (Tetranychus urticae [1]; 1.5 g ai/ha, mortality, 6 days): 0%

COCCOC(=O)C(C#N)(C(=O)c1ccccc1C(F)(F)F)c1ccc(C(C)(C)C)cc1 (racemic) [Cyflumetofen, 2-methoxyethyl (RS)-2-(4-tert-butylphenyl)-2-cyano-3-oxo-3-(α,α,α-trifluoro-o-tolyl)propionate]
Efficacy in % after 2 days (Tetranychus urticae [1]; 0.5 g ai/ha, mortality): 0% | pest or weed control at 0.5 g/ha (Tetranychus urticae [1]; [3]): 0%

emamectin benzoate [Emamectin-benzoate]
Efficacy in % after 2 days (Tetranychus urticae [1]; 0.003125 g ai/ha, mortality): 0% | Efficacy in % after 6 days (Tetranychus urticae [1]; 0.003125 g ai/ha, mortality, 6 days): 0% | Efficacy in % after 2 days (Tetranychus urticae [1]; 0.0125 g ai/ha, mortality): 0% | Efficacy in % after 6 days (Tetranychus urticae [1]; 0.0125 g ai/ha, mortality, 6 days): 0% | Efficacy in % after 6 days (Tetranychus urticae [1]; 0.15 g ai/ha, mortality, 6 days): 0%

Cc1cc(F)c(N=C2SCC(=O)N2CC(F)(F)F)cc1[S+]([O-])CC(F)(F)F (centres unmarked) [Cpd of formula (I)]
Efficacy in % after 6 days (Myzus persicae; 2 g ai/ha): 0% | Efficacy in % after 6 days (Myzus persicae; 8 g ai/ha): 0% | Efficacy in % after 3 days (Tetranychus urticae [2]; 0.4 ppm): 0% | Efficacy in % after 7 days (Tetranychus urticae [2]; 0.8 ppm): 30% | Efficacy in % after 2 days (Tetranychus urticae [1]; 0.125 g ai/ha, mortality): 0% | Efficacy in % after 2 days (Tetranychus urticae [1]; 0.5 g ai/ha, mortality): 0% | pest or weed control at 0.125 g/ha (Tetranychus urticae [1]; Tetranychus urticae, foliar, 144 h, 0.125 g ai/ha, mortality, 6 days, read-out: Efficacy in % after 6 days): 0% | pest or weed control at 0.3 g/ha (Tetranychus urticae [1]; Tetranychus urticae, foliar, 144 h, 0.3 g ai/ha, mortality, 6 days, read-out: Efficacy in % after 6 days): 0% | pest or weed control at 0.5 g/ha (Tetranychus urticae [1]; [4]): 0% | pest or weed control at 0.6 g/ha (Tetranychus urticae [1]; [5]): 0% | Efficacy in % after 14 days (Meloidogyne incognita; 1 ppm): 0% | Efficacy in % after 14 days (Meloidogyne incognita; 2 ppm): 70%

Cc1cc(C)c(C2=C(OC(=O)CC(C)(C)C)C3(CCCC3)OC2=O)c(C)c1 [Spiromesifen, 3-mesityl-2-oxo-1-oxaspiro[4.4]non-3-en-4-yl 3,3-dimethylbutyrate]
Efficacy in % after 2 days (Tetranychus urticae [1]; 0.05 g ai/ha, mortality): 0% | pest or weed control at 0.05 g/ha (Tetranychus urticae [1]; [3]): 0% | pest or weed control at 0.6 g/ha (Tetranychus urticae [1]; [3]): 0%
